Source: patent publication US20060167006A1, “Method of treatment” (priority 2003, published 2006)

Legend:
Format in all cases: cell-based, human
Mia-PaCa-2 cells = assay: Growth factor-induced proliferation (MTT), Mia-PaCa-2; settings: for Maximal effect of growth factor on cell growth: Mia-PaCa-2, growth factor alone (absence of Compound I), 72 hours, MTT
Method: (§1) Cell culture and MTT assay: Human pancreatic cancer cell lines are routinely grown in DMEM (Colo-357 and Mia-PaCa-2) or RPMI (Aspc-1, BxPc-3, Capan-1, and T3M4) supplemented with 10% FBS, 100 U/ml penicillin, and 100 μg/ml streptomycin (complete medium). To assess cell proliferation, the MTT test is employed. […] After 48 or 72 hours of incubation, 3-(4,5-methylthiazol-2-yl)-2,5-diphenyl-tetrazolium bromide (MTT) is added (50 μg/well) for 4 hours. Formazan products are solubilized with acidic isopropanol, and the optical density is measured at 570 nm. […] All experiments are performed in triplicate.
(§2) EGF-induced proliferation of both Mia-PaCa-2 and T3M4 cell lines in a dose-dependent manner is seen with maximal effects of +72% ±7.5% (Mia-PaCa-2) and +52% ±23% (T3M4). […] FGF-2 markedly stimulates cell growth in Mia-PaCa-2 cell lines with maximal effects of +79% ±6%, and only slightly stimulated T3M4 cell lines, with maximal effects of +7% ±4%. […] Both cell lines are less sensitive to IGF-1 stimulation compared with EGF and FGF-2, with maximal effects of +24% ±2% in Mia-PaCa-2 and +17% ±4% in. T3M4.

T3M4 cells = assay: Growth factor-induced proliferation (MTT), T3M4; settings: for Maximal effect of growth factor on cell growth: T3M4, growth factor alone (absence of Compound I), 72 hours, MTT
Method: as §1, §2

MAPK = assay: Western blot of MAPK phosphorylation in growth factor-conditioned cells; settings: Mia-PaCa-2 and T3M4 cells, data not shown
Method: Western blot analysis: Cell culture monolayers are washed twice with ice-cold PBS and lysed with buffer containing Tris-HCl (50 mM, pH 7.4), NP-40 (1%), Na-deoxycholate (0.25%), NaCl (150 mM), EDTA (1 mM), PMSF (1 mM), Na3VO4 (1 mM), NaF (1 mM) and one tablet of complete mini-EDTA-free protease inhibitor cocktail (in 10 ml buffer). Protein concentration is determined by the BCA protein assay (Pierce Chemical Co., Rockford, Ill., USA). 30 μg of cell lysates are separated on SDS-polyacrylamide gels and electroblotted onto nitrocellulose membranes. Membranes are then incubated in blocking solution (5% nonfat-milk in 20 mM Tris-HCl, 150 mM NaCl, 0.1% Tween-20) (TBS-T), followed by incubation with the indicated antibodies at 4° C. overnight. The membranes are then washed in TBS-T and incubated with HRPO-conjugated secondary antibodies for 1 hour at room temperature. Antibody detection is performed with an enhanced chemiluminescence reaction. Statistical analysis: Results are expressed as mean±SEM. For statistical analysis, the Student's t-test is used. Significance is defined as p<0.05.

[1] = test system: BxPc-3, Colo-357 and Capan-1; assay: PDGF effect on cell growth, three additional cell lines; settings: BxPc-3, Colo-357 and Capan-1, growth factor alone
Method: as §1, §2

Substance | Maximal effect of growth factor on cell growth (Mia-PaCa-2 cells) | Maximal effect of growth factor on cell growth (T3M4 cells) | Induction of cell proliferation by growth factor (Mia-PaCa-2 cells; Mia-PaCa-2, growth factor alone) | Induction of cell proliferation by growth factor (T3M4 cells; T3M4, growth factor alone) | Induction of PDGF and MAPK kinase phosphorylation (MAPK) | Effect of growth factor on cell growth [1]
FGF-2: human recombinant FGF-2 from R&D Systems | +79% ±6 | +7% ±4 |  |  |  | 
IGF-1: human recombinant IGF-1 from R&D Systems | +24% ±2 | +17% ±4 |  |  |  | 
PDGF |  |  | does not induce cell proliferation | does not induce cell proliferation | does not induce PDGF and MAPK kinase phosphorylation | no effect on cell growth
